Each structure is given as a SMILES string. Values joined by “and” are separate entries in the source; they are usually repeats but may differ in a detail not shown here. Equal values may be shown once.

The target of experiment [1] is Anti-cotinine antibody (SEQ ID NO: 11 / SEQ ID NO: 12, rabbit variable region with human IgG1 Fc domain). In words: Binding of anti-cotinine antibody to ARM compounds by SPR, Biacore T200, 37° C. (Example 202). Conditions: pH 7.4, rabbit variable region/human IgG1 Fc antibody captured on protein A. The procedure, abridged:
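Antibody captured on protein A chip. Compounds injected (3-fold, 5-point, top 200 nM) at 100 μL/min with 200 s association and 2000 s dissociation, at 37° C. in HEPES pH 7.4 buffer with 1% DMSO. Double-referenced data fit to 1:1 kinetics. Kd = koff/kon, reported as pKd, averaged over runs.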

Experiment [2] concerns the target human alpha1 nicotinic acetylcholine (nACh) receptor (Homo sapiens, UniProt P02708+Q07001). In words: Nicotinic acetylcholine receptor antagonism assay, IONFlux automated patch clamp (Example 203). The class given is cell-based. Particulars: for Emax at 10 µM: maximum percentage antagonism at maximum concentration tested 10 μM; for IC50: nAChR antagonism, ACh stimulated, patch clamp. The procedure, abridged: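 Human α1 nAChR-expressing cells were preincubated with compound (top 10 μM or 100 μM), then stimulated with 10 mM ACh; peak currents were recorded by IONFlux automated patch clamp. Percent inhibition versus ACh-alone control was vehicle- and rundown-corrected, then fitted to give IC50, with maximal antagonism at the top concentration; recordings with control current <500 pA were excluded.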
A general note: The patch-clamp technique gives a direct electrical read-out from membranes.

The target in experiment [3] is T1, CHOK1 cells engineered to overexpress human CCR2 (Homo sapiens, UniProt P41597).
T1 construct: expressed in transfected cells; host or cells: CHOK1 cells
Put plainly: Antibody dependent cellular cytotoxicity (ADCC) reporter assay (Example 199). The experiment is classed as cell-based. Particulars: with anti-cotinine antibody SEQ ID NO: 11/12; CHOK1-human CCR2 target cells, Jurkat FcγRIIIa NFAT-luciferase reporter cells; 12-18 hours; read-out: ADCC Reporter Assay pEC50 (converted). The procedure, abridged: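 CHOK1-hCCR2 target cells are co-incubated for 12–18 h with Jurkat FcγRIIIa/NFAT-luciferase reporter cells, ARM compound (1 pM–10 μM) and anti-cotinine antibody with a DE-mutant human IgG1 Fc (0.01–200 μg/mL). Luminescence is expressed as signal:background against no-compound wells; EC50 comes from nonlinear fit and is reported as pEC50, averaged across runs.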

human alpha1 nicotinic acetylcholine (nACh) receptor, sequence (P02708 21-457): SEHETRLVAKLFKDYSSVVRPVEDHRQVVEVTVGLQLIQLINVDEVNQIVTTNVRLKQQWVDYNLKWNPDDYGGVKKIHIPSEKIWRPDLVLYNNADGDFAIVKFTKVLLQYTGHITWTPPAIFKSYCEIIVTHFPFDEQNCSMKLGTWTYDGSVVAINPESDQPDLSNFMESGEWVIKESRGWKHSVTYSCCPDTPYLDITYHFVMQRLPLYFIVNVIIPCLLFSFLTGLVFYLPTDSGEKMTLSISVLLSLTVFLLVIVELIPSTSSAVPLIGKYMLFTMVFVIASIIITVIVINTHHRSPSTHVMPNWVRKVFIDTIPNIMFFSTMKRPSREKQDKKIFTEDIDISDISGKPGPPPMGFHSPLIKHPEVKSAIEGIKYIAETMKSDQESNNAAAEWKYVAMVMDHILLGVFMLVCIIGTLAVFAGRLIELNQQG
human alpha1 nicotinic acetylcholine (nACh) receptor, sequence (P11230 24-501 partner): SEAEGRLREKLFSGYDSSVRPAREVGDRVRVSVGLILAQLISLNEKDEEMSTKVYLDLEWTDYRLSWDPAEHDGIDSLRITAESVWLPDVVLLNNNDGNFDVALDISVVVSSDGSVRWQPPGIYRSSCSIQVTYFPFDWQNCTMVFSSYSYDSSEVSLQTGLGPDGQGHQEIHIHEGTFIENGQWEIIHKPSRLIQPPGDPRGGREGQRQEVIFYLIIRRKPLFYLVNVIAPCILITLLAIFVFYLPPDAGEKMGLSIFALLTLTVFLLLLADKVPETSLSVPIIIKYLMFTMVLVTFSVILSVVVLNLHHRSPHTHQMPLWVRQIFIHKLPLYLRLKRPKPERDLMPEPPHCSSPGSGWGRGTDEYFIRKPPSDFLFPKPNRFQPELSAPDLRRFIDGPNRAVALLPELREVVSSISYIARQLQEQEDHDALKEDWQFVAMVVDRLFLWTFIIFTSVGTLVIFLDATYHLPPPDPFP
human alpha1 nicotinic acetylcholine (nACh) receptor, sequence (Q07001 22-517): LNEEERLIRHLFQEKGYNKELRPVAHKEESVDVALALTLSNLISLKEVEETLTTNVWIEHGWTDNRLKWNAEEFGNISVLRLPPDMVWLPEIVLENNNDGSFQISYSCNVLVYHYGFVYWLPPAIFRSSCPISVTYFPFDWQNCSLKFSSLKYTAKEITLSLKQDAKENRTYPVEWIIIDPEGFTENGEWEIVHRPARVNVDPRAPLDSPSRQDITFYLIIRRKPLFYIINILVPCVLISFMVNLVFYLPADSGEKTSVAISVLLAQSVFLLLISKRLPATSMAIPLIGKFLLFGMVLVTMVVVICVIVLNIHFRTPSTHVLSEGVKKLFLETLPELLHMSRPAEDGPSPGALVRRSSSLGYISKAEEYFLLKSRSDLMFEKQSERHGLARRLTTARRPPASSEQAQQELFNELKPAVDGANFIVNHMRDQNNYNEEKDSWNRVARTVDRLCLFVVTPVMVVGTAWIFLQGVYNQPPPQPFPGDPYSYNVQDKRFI

For the compound `CN1C(=O)C[C@H](C(=O)NCCOCCOCCOCCOCCOCCC(=O)N[C@@H]2C[C@H](NC(C)(C)C)CC[C@@H]2N2CC[C@H](Nc3ncnc4ccc(C(F)(F)F)cc34)C2=O)[C@H]1c1cccnc1` [Example 37], in experiment [1], the “pKd of Antibody for ARM Compound of Formula (I)” value (shortened to “pKd of Antibody”) stood at 9.7475. Moreover, in experiment [2] (read-out: Maximum Response (%)), the Emax at 10 µM is 7.3%. The IC50 (usually the point on the concentration scale where inhibition reaches its midpoint) in experiment [2] is over 10 µM.

In the case of `CN1C(=O)C[C@H](C(=O)NCCOCCOCCOCCOCCOCCOCCC(=O)N[C@@H]2C[C@H](NC(C)(C)C)CC[C@@H]2N2CC[C@H](Nc3ncnc4ccc(C(F)(F)F)cc34)C2=O)[C@H]1c1cccnc1` [Example 38], the “pKd of Antibody” value in experiment [1] came to 9.611. For the same compound, the Emax at 10 µM in experiment [2] (read-out: Maximum Response (%)) is -2.2%. This compound registered an IC50 in experiment [2] of over 10 µM.

With `CN1C(=O)C[C@H](C(=O)NCCO[C@H]2CC[C@H](OCCCC(=O)N[C@H]3CC[C@H](C(=O)N[C@@H]4C[C@H](NC(C)(C)C)CC[C@@H]4N4CC[C@H](Nc5ncnc6ccc(C(F)(F)F)cc56)C4=O)CC3)CC2)[C@H]1c1cccnc1` [Example 10], the “pKd of Antibody” value in experiment [1] turned out to be 9.199. Further, the EC50 in experiment [3] was 3.16 nM. Further, the Emax at 33.33 µM in experiment [2] (maximum percentage antagonism at maximum concentration tested 33.33 μM, read-out: Maximum Response (%)) came to 48%. In experiment [2], this compound displayed an IC50 of over 33.3 µM.

In the case of `CC(C)N(C)[C@@H]1CC[C@H](N2CC[C@H](Nc3ncnc4ccc(C(F)(F)F)cc34)C2=O)[C@H](NC(=O)[C@H]2CC[C@H](NC(=O)CCCO[C@H]3CC[C@H](OCCNC(=O)[C@H]4CC(=O)N(C)[C@@H]4c4cccnc4)CC3)CC2)C1` [Example 1, (2S,3S)-N-(2-(((1R,4S)-4-(4-(((1R,4R)-4-(((1R,2S,5R)-5-(Isopropyl(methyl)amino)-2-((S)-2-oxo-3-((6-(trifluoromethyl)quinazolin-4-yl)amino)pyrrolidin-1-yl)cyclohexyl)carbamoyl)cyclohexyl)amino)-4-oxobutoxy)cyclohexyl)oxy)ethyl)-1-methyl-5-oxo-2-(pyridin-3-yl)pyrrolidine-3-carboxamide], the “pKd of Antibody” value in experiment [1] came out at 9.654. The EC50 in experiment [3] is 3.25 nM and 6.61 nM. Also, in experiment [2] (maximum percentage antagonism at maximum concentration tested 100 μM, read-out: Maximum Response (%)), the Emax at 100 µM came out at 25.6%. In experiment [2], the IC50 turned out to be 84.6 µM.

Source of the values: patent US20250136722A1, “CYTOTOXICITY TARGETING CHIMERAS” (GLAXOSMITHKLINE INTELLECTUAL PROPERTY DEVELOPMENT LIMITED, priority 2021, published 2025).
